Data on 60 molecules can be found in the METLIN SMRT retention time set (Domingo-Almenara et al. 2019).

Molecules are shown by their SMILES.

The data set is described as follows: gradient 5% acetonitrile 3 min, to 50% in 2 min, to 85% in 15 min, held 3 min, 100 µL/min. Particulars: column: Zorbax Extend-C18 2.1 x 50 mm; eluents: water / acetonitrile, 0.1% formic acid. The method in brief:
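Mixtures of ~100 pure standards were chromatographed on a Zorbax Extend-C18 column (2.1 × 50 mm, 1.8 μm) at 100 μL/min using water and acetonitrile, each with 0.1% formic acid. Detection used a quadrupole time-of-flight mass spectrometer in positive and negative ionization mode, and data collection spanned 3 months. Retention time was obtained from adduct peaks picked computationally and each checked manually.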
Consider `Cc1ccc(N2C(=O)N(CC(=O)N3CCC(C)CC3)C3CS(=O)(=O)CC32)cc1Cl` (stereo not given), for which the RP-LC retention time amounted to 879 s. With `O=C(NC(Cc1c[nH]c2ccccc12)C(=O)O)c1ccc(Cl)cc1` (stereo not given) the figure was 724 s; with `CC(C)(C)NC(=O)CN1CCC(c2nc(-c3ccc(F)cc3)no2)CC1`, 675 s; with `O=C(Nc1ccc(N2CCOCC2)cc1)c1cn2c(n1)CSCC2`, 600 s. With `N#Cc1nc(-c2ccc(COc3ccc(Cl)cc3)o2)oc1N1CCC(C(N)=O)CC1` the figure was 806 s; with `CN1CCN(CCNC(=O)CCc2c(-c3ccc(Br)cc3)nc3ccccn23)CC1`, 543 s. To `CC1Oc2ccccc2N(Cc2nc(-c3cccc(Br)c3)no2)C1=O` (stereo not given) belongs 1200 s; to `CCOC(=O)c1cccc(NC(=O)c2sccc2S(=O)(=O)N(C)c2ccc(OCC)cc2)c1`, 1220 s; to `CCC(C)c1ccc(NC(=O)c2nn(C)cc2Cl)cc1` (stereo not given), 1100 s. The molecule `COc1ccc(C(=O)Nc2nc(-c3ccc4c(c3)N(C)C(=O)CO4)c(C)s2)cc1` had an RP-LC retention time of 967 s. To `Cc1ccc(-c2nc3ccc(Cl)cn3c2Nc2ccc3c(c2)OCCO3)cc1` belongs 779 s; to `CCCCNC(=O)Cn1c(N)nc(CC)cc1=O`, 579 s.

`O=C(NCCc1c[nH]c2ccccc12)c1noc2c1CSc1ccccc1-2` showed an RP-LC retention time of 1130 s. The molecule `Cc1nc(Cn2cccc2C(=O)NCc2ccc(Br)cc2)no1` registered an RP-LC retention time of 942 s. With `COc1ccc(NC(=O)c2cnc3c(c2)c(=O)n(C)c(=O)n3-c2ccccc2)c(OC)c1` the figure was 844 s; with `Cc1ccc(S(=O)(=O)N2CCN(C3CCN(Cc4cccnc4)C3=O)CC2)c(C)c1` (stereo not given), 610 s; with `O=c1ccc(-c2ccc3c(c2)OCO3)nn1Cc1nc(-c2ccccc2)no1`, 939 s. To `COc1ccc(-c2cc3n(n2)CCCN(S(=O)(=O)c2ccc(NC(C)=O)cc2)C3)cc1` belongs 779 s; to `Cc1nn2c(CNS(=O)(=O)c3ccccc3F)c(-c3ccccc3)nc2s1`, 834 s; to `Oc1ccc(-c2nc3ccc(Cl)cn3c2Nc2ccc3c(c2)OCCO3)cc1`, 748 s.

On to `COC(=O)c1ccsc1NC(=O)c1c[nH]c2ccccc12`, for which the RP-LC retention time came out at 882 s.

The molecule `COc1ccc2nc(C(=O)NC(C)c3ccc(F)cc3)cn2n1` (stereo not given) yielded an RP-LC retention time of 821 s. For `O=C(Cc1cccc(Cl)c1)N1CCN(c2nc(CN3CCOCC3)cs2)CC1`, the RP-LC retention time was 644 s.

Consider `CN(CC#N)C(=O)c1nn(C)c2c1COc1ccccc1-2`, for which the RP-LC retention time stood at 834 s. With `CCc1ccc(-n2nnc(C(=O)N3CCCCC3C)c2-c2cccnc2)cc1` (stereo not given) the figure was 866 s; with `Cc1cccn2c(Nc3ccc4c(c3)OCCO4)c(-c3ccc(N4CCOCC4)cc3)nc12`, 683 s.

Regarding `O=C(Cn1nc2c(cc1=O)CCCC2)Nc1ccc(Br)cc1`, the RP-LC retention time came to 747 s. With `Cc1nnc2c(=O)n(CC(=O)NCc3ccc(F)cc3)c3cccnc3n12` the figure was 656 s; with `CN(C)S(=O)(=O)N1CCN(S(=O)(=O)c2ccc(F)cc2)CC1`, 757 s.

The molecule `N#Cc1cn(CC(=O)NCc2ccc3c(c2)OCCCO3)c2ccccc12` had an RP-LC retention time of 842 s.

In turn, `COC(=O)C1=CN(c2cccc(OC)c2)c2cc(F)ccc2S1(=O)=O` yielded an RP-LC retention time of 857 s. To `CC(C)CCNC(=O)Cn1c(=O)c2cccn2c2ccc(F)cc21` belongs 856 s; to `CCn1cc(-c2nc(C(=O)Nc3cc(OC)cc(OC)c3)cs2)c2cccnc21`, 1030 s; to `COc1ccc(CNC(=O)Cn2c(C)nc3onc(C)c3c2=O)cc1`, 711 s. To `CN(CC1CCOC1)C(=O)c1ccc(F)cc1Cl` (stereo not given) belongs 704 s; to `CC(C)CCNC(=O)C1(C)CN(S(=O)(=O)c2ccccc2)CC(=O)N1Cc1ccc(F)cc1` (stereo not given), 978 s. With `COc1ccc(NC(=O)N2CCC3(C2)C(=O)N(C)c2ccccc23)cc1F` (stereo not given), the RP-LC retention time turned out to be 785 s. Regarding `Cn1c(=O)sc2cc(S(=O)(=O)N3CCC(C(=O)Nc4ccccc4)CC3)ccc21`, the RP-LC retention time is 835 s. To `NC(=O)C1CCN(C(=O)Cc2cc(-c3ccco3)on2)CC1` belongs 580 s.

`Cn1cc(C(=O)N2CC(Oc3ccc(-c4nc(-c5ccccc5)no4)cc3)C2)cn1` showed an RP-LC retention time of 941 s. With `CCC(=O)Nc1ccc2c(c1)nc(CN1CCOCC1)n2C(C)C` the figure was 587 s; with `CCc1noc(NC(C)=O)c1-c1ccc(OC)c(S(=O)(=O)Nc2c(C)cccc2C)c1`, 790 s. With `CCCc1cc(NCc2ccccn2)n2ncc(-c3ccccc3)c2n1` the figure was 894 s; with `COc1ccc2cc(C(=O)Nc3ccc(F)cc3C)[nH]c2c1`, 806 s. To `Cc1cc(F)ccc1NC(=O)C1CCN(S(=O)(=O)c2cc(C(=O)N3CCOCC3)cs2)CC1` belongs 759 s; to `O=C(CCn1nnc2ccccc2c1=O)NCC1CCS(=O)(=O)C1` (stereo not given), 585 s; to `COCc1noc([C@@H]2CC(F)(F)CN2C(=O)c2occc2C)n1`, 788 s. In turn, `Cc1cc2c(cc1NC(=O)CCc1ccccc1)n(C)c(=O)n2C` returned an RP-LC retention time of 715 s. To `COC(=O)c1cnc2nc(C)ccc2c1Nc1cc(OC)ccc1OC` belongs 667 s; to `COc1ccc(NC(=O)C2CC(=O)N(c3ccc4oc(C)nc4c3)C2)cc1` (stereo not given), 706 s; to `O=C([C@@H]1C[C@H](F)CN1C(=O)Nc1cccc(Cl)c1)N1CCCCC1`, 747 s. To `CCC(=O)NCc1csc(C2CCN(C(=O)c3ccc(Br)cc3)CC2)n1` belongs 722 s; to `CCOc1ccc(C(=O)N2CCC3(CC2)NC(=O)c2cc(F)ccc2N3C)cc1`, 767 s. With `O=C(CCc1ccc2nc(-c3ccccc3)[nH]c2c1)NCc1cccnc1` the figure was 555 s; with `COc1cccc(-c2nc(-c3ccc4c(c3)ncn4CCN3CCCCC3)no2)c1`, 657 s; with `O=C(Cc1ccc(F)cc1)NC(c1ccccc1)c1nnc(N2CCCC2)o1` (stereo not given), 780 s.

In turn, `Cc1ccccc1C(=O)NCCc1nc2cccnc2n1CC(C)C` came in with an RP-LC retention time of 717 s.

`COC(=O)c1cc2c(=O)n(-c3cc(Cl)ccc3Cl)ccc2nc1C` displayed an RP-LC retention time of 944 s. With `Cn1cc(-c2nc(C(=O)NCc3cc(F)cc(F)c3)cs2)c2cccnc21` the figure was 944 s; with `COc1ccc(NC(=O)NC2CCN(c3ccc(F)c(C)c3)C2=O)cc1` (stereo not given), 798 s.
